Experimental data reported in patent US9688678B2, “Oxindole compounds carrying a nitrogen-bound spiro substituent and use thereof for treating vasopressin-related diseases” (AbbVie Deutschland GmbH & Co. KG, priority 2014, dated 2017).
pKi: −log10 of the molar value.

Key:
[1] = molecular target: human vasopressin V1b receptor (Homo sapiens (Human), UniProt P47901); experiment: Vasopressin V1b receptor binding assay; conditions: membranes from CHO-K1 cells, displacement of 3H-AVP
Description: The test substances were dissolved in a concentration of 5 mM in 100% DMSO and further diluted to 5×10^−4 M to 5×10^−9 M. These serial DMSO predilutions were diluted 1:10 with assay buffer. The substance concentration was further diluted 1:5 in the assay mixture resulting in 2% DMSO in the mixture. All dilutions were performed in a Biomek NX automation workstation (Beckman)
The membrane pellet was again homogenized and centrifuged as described and subsequently taken up in 50 mM Tris-HCl, pH 7.4, homogenized and stored in aliquots frozen in liquid nitrogen at −190° C.
(§1) The incubation buffer was: 50 mM Tris, 10 mM MgCl2, 0.1% BSA, pH 7.4.
All determinations were carried out as duplicate determinations. […] The liquid scintillation measurement took place in a Microbeta TriLux 12 (Wallac). Analysis:
(§2) The binding parameters were calculated by nonlinear regression in SAS.

[2] = molecular target: human vasopressin V1a receptor (Homo sapiens (Human), UniProt P37288); experiment: Vasopressin V1a receptor binding assay; conditions: selectivity quotient, human V1a vs human V1b receptor
human vasopressin V1a receptor, sequence (P37288 whole entry): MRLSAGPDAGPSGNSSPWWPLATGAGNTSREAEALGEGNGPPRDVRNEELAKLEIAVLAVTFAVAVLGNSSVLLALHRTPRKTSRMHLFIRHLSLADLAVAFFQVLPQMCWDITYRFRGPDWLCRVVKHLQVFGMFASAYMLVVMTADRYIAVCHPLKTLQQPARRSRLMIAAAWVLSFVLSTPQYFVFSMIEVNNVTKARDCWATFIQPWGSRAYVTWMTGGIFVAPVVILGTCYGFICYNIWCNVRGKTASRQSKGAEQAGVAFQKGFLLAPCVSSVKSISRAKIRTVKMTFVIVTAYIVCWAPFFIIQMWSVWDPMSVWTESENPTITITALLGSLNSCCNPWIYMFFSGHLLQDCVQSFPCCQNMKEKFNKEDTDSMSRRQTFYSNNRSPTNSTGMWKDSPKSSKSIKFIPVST
Description: The test substances were dissolved in a concentration of 5 mM M in DMSO. Further dilution of these DMSO solutions took place as described for V1b.
The membrane pellet was again homogenized in a High-Pressure-Homogenizer, Polytec 50K at 1500 PSI (Heinemann, Germany) and subsequently taken up in 50 mM Tris-HCl, pH 7.4, homogenized and stored in aliquots frozen in liquid nitrogen at −190° C.
as §1
Duplicate determinations were carried out.
After incubation (60 minutes at room temperature), the samples were processed as described for V1b.
as §2

human vasopressin V1b receptor, sequence (P47901 whole entry): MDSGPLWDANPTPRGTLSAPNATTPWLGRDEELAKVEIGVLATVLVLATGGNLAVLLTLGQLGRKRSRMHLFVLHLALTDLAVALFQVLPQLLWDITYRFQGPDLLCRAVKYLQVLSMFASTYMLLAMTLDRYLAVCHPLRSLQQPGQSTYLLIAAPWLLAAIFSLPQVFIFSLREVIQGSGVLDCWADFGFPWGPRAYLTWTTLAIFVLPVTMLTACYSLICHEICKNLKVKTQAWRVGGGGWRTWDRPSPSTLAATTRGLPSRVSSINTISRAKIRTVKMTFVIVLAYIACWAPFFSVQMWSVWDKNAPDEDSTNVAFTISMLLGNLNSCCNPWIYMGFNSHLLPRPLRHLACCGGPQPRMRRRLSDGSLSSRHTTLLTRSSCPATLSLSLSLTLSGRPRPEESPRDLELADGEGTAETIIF

SMILES	pKi [1]	Ki(h-V1a)/ Ki(h-V1b) [2]
CCOc1ccc(OC)cc1[C@]1(N2CC3(CN(C4CCN(C)CC4)C3)C2)C(=O)N(S(=O)(=O)c2ccccn2)c2ccc(C#N)cc21 [Example 33, (3S)-3-(2-ethoxy-5-methoxy-phenyl)-3-[2-(1-methyl-4-piperidyl)-2,6-diazaspiro[3.3]heptan-6-yl]-2-oxo-1-(2-pyridylsulfonyl)indoline-5-carbonitrile]	8.00 to 9.00	+++ (>75)
CCOc1ccc(OC)cc1[C@]1(N2CC3(CN(C4CCN(C)CC4)C3)C2)C(=O)N(S(=O)(=O)c2ccc(Cl)cn2)c2ccc(C#N)cc21 [Example 34, (3S)-1-[(5-chloro-2-pyridyl)sulfonyl]-3-(2-ethoxy-5-methoxy-phenyl)-3-[2-(1-methyl-4-piperidyl)-2,6-diazaspiro[3.3]heptan-6-yl]-2-oxo-indoline-5-carbonitrile]	> 9.00	+++ (>75)
